The target of one test is T1, G2019S LRRK2 (Homo sapiens, UniProt Q5S007, G2019S).
T1 construct: expressed in transfected cells; host or cells: HEK293 (ATCC CRL-1573), transient transfection, ubiquitin promoter
The test is described as follows: LRRK2 degradation assay, G2019S LRRK2-HiBit expressed from plasmid in HEK293 cells. In kind it is cell-based. The conditions noted are these: HEK293 cells transfected with HiBit-tagged G2019S LRRK2, 24 hours compound incubation. How it is done: (§1) The assay measures the degradation of wildtype and G2019S LRRK2 tagged with a HiBit tag on the C-terminus of the protein that was expressed from a mammalian expression vector, driven by the ubiquitin promoter in HEK293 cells. Each compound dose-response was repeated on two separate days, on three separate plates each day.
(§2) Plasmid Preparation. Transfection mixes were assembled as follows and incubated for 30 minutes at room temperature. In a 15 mL tube, 5.25 mL Opti-MEM (no additions) was mixed with 17 μL Firefly Luciferase plasmid at 1 μg/μL and 158 μL WT plasmid DNA at 1 μg/μL (175 μg total DNA) were mixed by flicking. In a new 15 mL tube, 5.25 mL OptiMEM was mixed with 17 μL Firefly Luciferase plasmid at 1 μg/μL and 158 μL G2019S plasmid DNA at 1 μg/μL (175 μg total DNA) were mixed by flicking. X-tremeGene HP was mixed thoroughly using a vortex. Next, 175 μL was added to each tube and flicked to mix. Both tubes were left to incubate for 30 minutes at room temperature.
(§3) While the transfection mixes were incubating, HEK293 cells (acquired from ATCC; ATCC CRL-1573) were harvested with trypsin. Once cells are detached, the cells were resuspended in 12 mL OptiMEM+5% FBS and transferred to a 50 mL tube. The cells were mixed well and counted. Using OptiMEM+5% FBS, the cells were diluted in two 250 mL conical tubes at 0.71×10^6 cells/mL in 70 mL. One tube was labeled “WT” and the other “G2019S”. The WT and G2019S transfection mixes were added dropwise to the corresponding 250 mL tubes. The tubes were mixed first by pipetting then by swirling. The tubes were incubated at room temperature for at least 5 minutes.
(§4) Each tube was swirled before dispensing and after every three plates. Seventy microliters of cells were dispensed with WT or G2019S DNA to seven plates each. Three plates of each were tested with compound plate one (preparation described below) and three plates of each were tested with compound plate two (preparation described below). The first plate from each set served as a “prime” plate and was not used to test compounds. Each plate was incubated in the hood for 10 minutes before placing in the 37° C. incubator for 24 hours.
(§5) Preparation of Compound and Assay Plates. Two compound plates were made using 96 well polypropylene plates. Compounds were made up at 10 mM and were diluted to 1 mM in 30 μL. Each dose response curve included a well of DMSO, as a negative control and for normalization, and a well of 0.5 μM of Exemplary Compound 4 as a positive control. In addition to seven test compounds, each plate also included a dose response of Exemplary Compound 4. The compound plates were spun down along at 1200 rpm for 2 minutes.
(§6) The two compound plates were then mixed and 2 μL was diluted in intermediate plates having 248 μL of Opti-Mem in each well. Next, 10 μL diluted compounds from the intermediate plates were added to each test plate (three WT and three G2019S plates per compound plate for a total of 12 assay plates). The plates were incubated for 24 hours at 37° C.
(§7) All assay plates and all Nano-Glo Dual-Luciferase Reporter Assay System components (except for the DLR substrate) were equilibrated to room temperature. Next, the luciferase buffer was mixed with the lyophilized amber bottle until fully dissolved, and 75 μL of the luciferase mixture was added to each well of each assay plate. The assay plates were incubated for 10 minutes at room temperature with shaking for at least 5 minutes, and then read on a plate reader.
(§8) Developing Plates and Analyzing Data. One milliliter of DLR substrate and 1 mL LgBiT Protein were added to the Stop and Glo buffer, and 75 μL of the mixture was added to each well of each plate. Optically clear seals were added to each plate and each plate was incubated for 20 minutes with shaking for at least 10 minutes, and then read on a plate reader. […]
(In general: The HiBiT peptide binds its large partner to form an active luciferase.)

The target of the next test is T2, wildtype LRRK2 (Homo sapiens, UniProt Q5S007).
T2 construct: expressed in transfected cells; host or cells: HEK293 (ATCC CRL-1573), transient transfection, ubiquitin promoter
T2 sequence (Q5S007 whole entry): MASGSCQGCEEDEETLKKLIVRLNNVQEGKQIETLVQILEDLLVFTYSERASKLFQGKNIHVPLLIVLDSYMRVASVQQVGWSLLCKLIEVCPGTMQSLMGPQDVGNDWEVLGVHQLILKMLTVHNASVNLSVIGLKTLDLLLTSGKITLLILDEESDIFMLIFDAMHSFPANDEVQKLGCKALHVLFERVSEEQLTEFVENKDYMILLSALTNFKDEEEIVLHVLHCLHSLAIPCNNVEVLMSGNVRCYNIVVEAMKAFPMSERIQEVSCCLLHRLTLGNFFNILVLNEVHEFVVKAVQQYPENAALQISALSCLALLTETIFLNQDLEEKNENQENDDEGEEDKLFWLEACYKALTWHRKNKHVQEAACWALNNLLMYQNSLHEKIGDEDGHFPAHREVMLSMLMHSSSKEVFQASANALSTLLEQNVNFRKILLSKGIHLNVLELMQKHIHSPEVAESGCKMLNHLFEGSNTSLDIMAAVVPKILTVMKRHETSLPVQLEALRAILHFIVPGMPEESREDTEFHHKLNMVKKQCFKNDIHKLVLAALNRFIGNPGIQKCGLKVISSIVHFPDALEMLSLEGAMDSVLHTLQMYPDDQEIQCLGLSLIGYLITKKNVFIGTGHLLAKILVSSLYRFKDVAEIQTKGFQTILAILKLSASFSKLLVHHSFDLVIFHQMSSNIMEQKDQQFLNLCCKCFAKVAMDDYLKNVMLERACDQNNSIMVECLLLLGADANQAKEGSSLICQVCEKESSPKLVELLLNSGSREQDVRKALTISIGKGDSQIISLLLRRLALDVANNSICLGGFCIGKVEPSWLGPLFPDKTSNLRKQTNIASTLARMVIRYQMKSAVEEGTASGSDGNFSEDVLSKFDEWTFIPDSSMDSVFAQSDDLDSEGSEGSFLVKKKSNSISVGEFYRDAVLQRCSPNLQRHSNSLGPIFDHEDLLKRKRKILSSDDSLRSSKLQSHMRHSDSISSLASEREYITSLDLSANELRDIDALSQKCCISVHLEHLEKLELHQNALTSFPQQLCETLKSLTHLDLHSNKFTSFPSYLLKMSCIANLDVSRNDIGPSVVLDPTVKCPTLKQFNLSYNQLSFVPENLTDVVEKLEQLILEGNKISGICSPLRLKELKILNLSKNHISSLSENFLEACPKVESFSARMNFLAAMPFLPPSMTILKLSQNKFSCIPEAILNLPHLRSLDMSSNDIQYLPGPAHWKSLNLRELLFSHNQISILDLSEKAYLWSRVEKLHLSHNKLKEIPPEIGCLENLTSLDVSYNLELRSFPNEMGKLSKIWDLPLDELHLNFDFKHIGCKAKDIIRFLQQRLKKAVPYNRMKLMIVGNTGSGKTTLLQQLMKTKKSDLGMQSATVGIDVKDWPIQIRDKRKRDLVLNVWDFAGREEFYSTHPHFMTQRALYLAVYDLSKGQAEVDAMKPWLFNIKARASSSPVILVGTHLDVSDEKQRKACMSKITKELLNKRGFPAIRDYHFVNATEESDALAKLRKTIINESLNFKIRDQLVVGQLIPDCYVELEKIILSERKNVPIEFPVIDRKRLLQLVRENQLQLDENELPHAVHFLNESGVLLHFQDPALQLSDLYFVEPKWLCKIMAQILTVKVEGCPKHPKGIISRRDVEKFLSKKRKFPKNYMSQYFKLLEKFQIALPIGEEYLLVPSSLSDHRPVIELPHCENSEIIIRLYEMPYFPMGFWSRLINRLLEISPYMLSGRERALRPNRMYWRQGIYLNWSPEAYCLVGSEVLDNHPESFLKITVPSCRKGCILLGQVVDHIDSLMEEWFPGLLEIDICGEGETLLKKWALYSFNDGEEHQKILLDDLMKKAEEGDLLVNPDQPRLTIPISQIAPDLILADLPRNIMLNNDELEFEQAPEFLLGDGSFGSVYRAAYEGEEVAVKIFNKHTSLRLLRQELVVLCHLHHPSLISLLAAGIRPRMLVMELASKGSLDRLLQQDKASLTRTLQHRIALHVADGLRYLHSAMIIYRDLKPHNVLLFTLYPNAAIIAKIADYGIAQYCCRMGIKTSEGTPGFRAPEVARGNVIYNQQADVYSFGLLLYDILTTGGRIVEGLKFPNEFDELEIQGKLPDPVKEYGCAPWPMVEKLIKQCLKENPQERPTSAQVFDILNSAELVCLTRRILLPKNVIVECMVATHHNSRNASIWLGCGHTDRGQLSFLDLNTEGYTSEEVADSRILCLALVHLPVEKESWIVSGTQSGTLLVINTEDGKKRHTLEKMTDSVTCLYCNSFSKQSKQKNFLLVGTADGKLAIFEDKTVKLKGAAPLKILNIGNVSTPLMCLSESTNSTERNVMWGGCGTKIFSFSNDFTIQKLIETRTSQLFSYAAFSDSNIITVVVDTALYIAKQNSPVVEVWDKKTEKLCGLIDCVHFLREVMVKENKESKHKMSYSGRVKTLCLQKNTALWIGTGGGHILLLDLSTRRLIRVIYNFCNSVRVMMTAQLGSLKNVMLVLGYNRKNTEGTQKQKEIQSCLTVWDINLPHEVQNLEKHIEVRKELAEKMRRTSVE
The test is described as follows: LRRK2 degradation assay, wildtype LRRK2-HiBit expressed from plasmid in HEK293 cells. The format is cell-based. Particulars: HEK293 cells transfected with HiBit-tagged wildtype LRRK2, 24 hours compound incubation; for Dmax: read-out: **WT Dmax (%); for DC50: read-out: *WT DC50. How it is done:
as §1, §2, §3, §4, §5, §6, §7, §8

T1 sequence (Q5S007 whole entry G2019S): as the sequence (Q5S007 whole entry) above, with G2019S counted along it

As to `CC(C)Oc1ccc2[nH]nc(-c3cc(N4CCN(CC5CCN(CC6CCN(c7ccc8c(c7)C(=O)N(C7CCC(=O)NC7=O)C8=O)CC6)CC5)[C@@H](C)C4)ncn3)c2c1` (stereo partly drawn) [compound 25, 2-(2,6-dioxopiperidin-3-yl)-5-{4-[(4-{[(2S)-2-methyl-4-{6-[5-(propan-2-yloxy)-1H-indazol-3-yl]pyrimidin-4-yl}piperazin-1-yl]methyl}piperidin-1-yl)methyl]piperidin-1-yl}-2,3-dihydro-1H-isoindole-1,3-dione], the 50% degradation concentration (DC50) on G2019S LRRK2 and at wildtype LRRK2 was below 0.01 µM throughout. The Dmax at G2019S LRRK2 and on wildtype LRRK2 was at least 70% in each case.

For the compound `CC(C)Oc1ccc2[nH]nc(-c3cc(N4CCN(CC(F)(F)C5CCN(CC6CCN(c7ccc8c(c7)C(=O)N(C7CCC(=O)NC7=O)C8=O)CC6)CC5)CC4)ncn3)c2c1` (centres unmarked) [compound 40, 5-(4-((4-(1,1-difluoro-2-(4-(6-(5-isopropoxy-1H-indazol-3-yl)pyrimidin-4-yl)piperazin-1-yl)ethyl)piperidin-1-yl)methyl)piperidin-1-yl)-2-(2,6-dioxopiperidin-3-yl)isoindoline-1,3-dione], on G2019S LRRK2, the 50% degradation concentration (DC50) (as a rule, the concentration at which degradation of the target reaches its halfway point) lay within 0.01 to 0.05 µM and the Dmax (commonly the largest share of the target that was removed) lay within 50 to 70%. On wildtype LRRK2, the maximal degradation (Dmax) is at least 70% and the DC50 was in the range of 0.01 to 0.05 µM.

With `CC1(Oc2ccc3[nH]nc(-c4cc(N5CCN(CCN6CCC(CN7CCN(c8ccc9c(c8)C(=O)N(C8CCC(=O)NC8=O)C9=O)CC7)CC6)CC5)ncn4)c3c2)CC1` (centres unmarked) [compound 28, 2-(2,6-dioxopiperidin-3-yl)-5-[4-({1-[2-(4-{6-[5-(1-methylcyclopropoxy)-1H-indazol-3-yl]pyrimidin-4-yl}piperazin-1-yl)ethyl]piperidin-4-yl}methyl)piperazin-1-yl]-2,3-dihydro-1H-isoindole-1,3-dione], the DC50 at G2019S LRRK2 and at wildtype LRRK2 was below 0.01 µM throughout. Also, the Dmax at G2019S LRRK2 and on wildtype LRRK2 was at least 70% each time.

On G2019S LRRK2, `C[C@H]1CN(c2cc(-c3n[nH]c4ccc(OC5(C)CC5)cc34)ncn2)CCN1CCOCCN1CCN(c2ccc3c(c2)C(=O)N(C2CCC(=O)NC2=O)C3=O)CC1` (stereo partly drawn) [compound 20, 2-(2,6-dioxopiperidin-3-yl)-5-[4-(2-{2-[(2S)-2-mcthyl-4-{6-[5-(1-methylcyclopropoxy)-1H-indazol-3-yl]pyrimidin-4-yl}piperazin-1-yl]ethoxy}ethyl)piperazin-1-yl]-2,3-dihydro-1H-isoindole-1,3-dione] gave a DC50 below 0.01 µM and a maximal degradation (Dmax) of 50 to 70%. Further, at wildtype LRRK2, the maximal degradation (Dmax) was in the range of 50 to 70% and the DC50 is below 0.01 µM.

`CC(C)Oc1ccc2[nH]nc(-c3cc(N4C[C@@H](C)N(CCOCCOCCOCCOc5ccc6c(c5)C(=O)N(C5CCC(=O)NC5=O)C6=O)[C@@H](C)C4)ncn3)c2c1` (stereo partly drawn) [compound 10, 5-{2-[2-(2-{2-[(2R,6S)-2,6-dimethyl-4-{6-[5-(propan-2-yloxy)-1H-indazol-3-yl]pyrimidin-4-yl}piperazin-1-yl]ethoxy}ethoxy)ethoxy]ethoxy}-2-(2,6-dioxopiperidin-3-yl)-2,3-dihydro-1H-isoindole-1,3-dione]: on G2019S LRRK2, the DC50 was 0.01 to 0.05 µM and the Dmax fell in the range of 50 to 70%. In addition, on wildtype LRRK2, the Dmax was 50 to 70% and the 50% degradation concentration (DC50) was in the range of 0.01 to 0.05 µM.

In the case of `C[C@H]1CN(c2cc(-c3n[nH]c4ccc(OC5(C)CC5)cc34)ncn2)CCN1CCN1CCC(CN2CCN(c3ccc4c(c3)C(=O)N(C3CCC(=O)NC3=O)C4=O)CC2)CC1` (stereo partly drawn) [compound 29, 2-(2,6-dioxopiperidin-3-yl)-5-{4-[(1-{2-[(2S)-2-methyl-4-{6-[5-(1-methylcyclopropoxy)-1H-indazol-3-yl]pyrimidin-4-yl}piperazin-1-yl]ethyl}piperidin-4-yl)methyl]piperazin-1-yl}-2,3-dihydro-1H-isoindole-1,3-dione], the half-maximal degradation concentration (DC50) at G2019S LRRK2 and at wildtype LRRK2 was below 0.01 µM throughout. The greatest degradation seen (Dmax) on G2019S LRRK2 and at wildtype LRRK2 was at least 70% each time.

Consider `CC(C)Oc1ccc2[nH]nc(-c3cc(N4CCN(CCN5CCC(CN6CCN(c7ccc8c(c7)C(=O)N(C7CCC(=O)NC7=O)C8=O)CC6)CC5)[C@@H](C)C4)ncn3)c2c1` (stereo partly drawn) [compound 30, 2-(2,6-dioxopiperidin-3-yl)-5-{4-[(1-{2-[(2S)-2-methyl-4-{6-[5-(propan-2-yloxy)-1H-indazol-3-yl]pyrimidin-4-yl}piperazin-1-yl]ethyl}piperidin-4-yl)methyl]piperazin-1-yl}-2,3-dihydro-1H-isoindole-1,3-dione], for which the DC50 on G2019S LRRK2 and at wildtype LRRK2 was below 0.01 µM in each case. The maximal degradation (Dmax) at G2019S LRRK2 and at wildtype LRRK2 was at least 70% each time.

At G2019S LRRK2, `CC(C)Oc1ccc2[nH]nc(-c3cc(N4CCN(CCN(C)CCN5CCN(c6ccc7c(c6)C(=O)N(C6CCC(=O)NC6=O)C7=O)CC5)[C@@H](C)C4)ncn3)c2c1` (stereo partly drawn) [compound 37, 2-(2,6-dioxopiperidin-3-yl)-5-(4-{2-[methyl({2-[(2S)-2-methyl-4-{6-[5-(propan-2-yloxy)-1H-indazol-3-yl]pyrimidin-4-yl}piperazin-1-yl]ethyl})amino]ethyl}piperazin-1-yl)-2,3-dihydro-1H-isoindole-1,3-dione] gave a DC50 of 0.05 to 0.1 µM and a Dmax of 50 to 70%. Also, at wildtype LRRK2, the greatest degradation seen (Dmax) is 50 to 70% and the DC50 was at least 0.1 µM.

Take `C[C@H]1CN(c2cc(-c3n[nH]c4ccc(OC(C)(C)C)cc34)ncn2)CCN1CCOCCOCCOCCOc1ccc2c(c1)C(=O)N(C1CCC(=O)NC1=O)C2=O` (stereo partly drawn) [compound 16, 5-{2-[2-(2-{2-[(2S)-4-{6-[5-(tert-butoxy)-1H-indazol-3-yl]pyrimidin-4-yl}-2-methylpiperazin-1-yl]ethoxy}ethoxy)ethoxy]ethoxy}-2-(2,6-dioxopiperidin-3-yl)-2,3-dihydro-1H-isoindole-1,3-dione]: the 50% degradation concentration (DC50) at G2019S LRRK2 and at wildtype LRRK2 was at least 0.1 µM throughout. Also, the Dmax on G2019S LRRK2 and on wildtype LRRK2 was below 50% throughout.

Turning to `C[C@H]1CN(c2cc(-c3n[nH]c4ccc(OC5(C)CC5)cc34)ncn2)CCN1CCOC1CCN(CC2CCN(c3ccc4c(c3)C(=O)N(C3CCC(=O)NC3=O)C4=O)CC2)CC1` (stereo partly drawn) [compound 33, 2-(2,6-dioxopiperidin-3-yl)-5-{4-[(4-{2-[(2S)-2-methyl-4-{6-[5-(1-methylcyclopropoxy)-1H-indazol-3-yl]pyrimidin-4-yl}piperazin-1-yl]ethoxy}piperidin-1-yl)methyl]piperidin-1-yl}-2,3-dihydro-1H-isoindole-1,3-dione], the 50% degradation concentration (DC50) at G2019S LRRK2 is below 0.01 µM; at wildtype LRRK2, 0.01 to 0.05 µM. For the same compound, the Dmax on G2019S LRRK2 and on wildtype LRRK2 was at least 70% in each case.

In the case of `C[C@@H]1CN(c2cc(-c3n[nH]c4ccc(OC5(C)CC5)cc34)ncn2)C[C@H](C)N1CCOCCOCCOc1ccc2c(c1)C(=O)N(C1CCC(=O)NC1=O)C2=O` (stereo partly drawn) [compound 6, 5-[2-(2-{2-[(2R,6S)-2,6-dimethyl-4-{6-[5-(1-methylcyclopropoxy)-1H-indazol-3-yl]pyrimidin-4-yl}piperazin-1-yl]ethoxy}ethoxy)ethoxy]-2-(2,6-dioxopiperidin-3-yl)-2,3-dihydro-1H-isoindole-1,3-dione], the DC50 at G2019S LRRK2 and on wildtype LRRK2 was below 0.01 µM in each case. In addition, the greatest degradation seen (Dmax) on G2019S LRRK2 and on wildtype LRRK2 was 50 to 70% throughout.

The values are drawn from patent publication US20250114356A1, “INDAZOLE BASED COMPOUNDS AND ASSOCIATED METHODS OF USE” (Arvinas Operations, Inc., priority 2020, published 2025).
